In ChEMBL document CHEMBL1201862, “PubChem BioAssay data set” (2004):
Calls of active or inactive are those of the source.

Assays:
[1] = biological target: T1, Intestinal-type alkaline phosphatase (Mus musculus, UniProt P24822); experiment: mouse intestinal alkaline phosphatase activators, dose response, biochemical, luminescence, uHTS hits (AID 488783); assay type: functional
[2] = biological target: T2, Alkaline phosphatase, tissue-nonspecific isozyme (Homo sapiens, UniProt P05186); experiment: activation of tissue-nonspecific alkaline phosphatase – biochemical, TNAP isozyme, mouse IAP uHTS hits, selectivity assay for mouse IAP activator project, dose response (AID 488880); assay type: functional
T2 sequence (P05186 whole entry): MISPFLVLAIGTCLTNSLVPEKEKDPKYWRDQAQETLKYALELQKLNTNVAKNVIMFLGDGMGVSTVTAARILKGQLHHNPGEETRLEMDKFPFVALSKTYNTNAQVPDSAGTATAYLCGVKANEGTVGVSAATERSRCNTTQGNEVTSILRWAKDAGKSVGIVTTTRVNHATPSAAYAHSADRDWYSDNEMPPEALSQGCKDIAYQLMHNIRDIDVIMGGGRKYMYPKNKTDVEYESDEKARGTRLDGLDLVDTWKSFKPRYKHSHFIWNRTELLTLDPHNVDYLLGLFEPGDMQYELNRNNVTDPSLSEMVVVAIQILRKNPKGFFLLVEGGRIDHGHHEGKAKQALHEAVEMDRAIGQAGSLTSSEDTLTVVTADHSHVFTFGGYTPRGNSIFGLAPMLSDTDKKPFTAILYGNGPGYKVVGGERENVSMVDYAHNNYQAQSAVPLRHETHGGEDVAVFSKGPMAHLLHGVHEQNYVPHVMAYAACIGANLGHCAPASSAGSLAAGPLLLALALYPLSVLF

[3] = biological target: T3, RNA-binding protein pos-1 (Caenorhabditis elegans, UniProt G5EF15); experiment: disruptors of C. elegans POS-1 RNA interaction – biochemical, fluorescence polarization, dose response (AID 1964);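 further: purified POS-1 fused to maltose binding protein made in E. coli; potency of compounds blocking POS-1 binding to fluorescent RNA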
T3 sequence (G5EF15 whole entry): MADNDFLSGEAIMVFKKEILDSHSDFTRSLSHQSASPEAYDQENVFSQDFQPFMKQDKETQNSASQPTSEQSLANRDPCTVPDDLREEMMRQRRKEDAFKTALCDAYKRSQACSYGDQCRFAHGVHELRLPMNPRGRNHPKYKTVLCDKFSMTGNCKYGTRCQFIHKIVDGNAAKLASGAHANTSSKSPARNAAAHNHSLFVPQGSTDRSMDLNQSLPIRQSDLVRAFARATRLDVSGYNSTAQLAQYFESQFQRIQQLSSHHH

[4] = biological target: T4, Zinc finger protein mex-5 (Caenorhabditis elegans, UniProt Q9XUB2); experiment: potency of MEX-5 RNA-binding blockers – biochemical, C. elegans, fluorescence polarization, dose response (AID 1960)
T4 sequence (Q9XUB2 whole entry): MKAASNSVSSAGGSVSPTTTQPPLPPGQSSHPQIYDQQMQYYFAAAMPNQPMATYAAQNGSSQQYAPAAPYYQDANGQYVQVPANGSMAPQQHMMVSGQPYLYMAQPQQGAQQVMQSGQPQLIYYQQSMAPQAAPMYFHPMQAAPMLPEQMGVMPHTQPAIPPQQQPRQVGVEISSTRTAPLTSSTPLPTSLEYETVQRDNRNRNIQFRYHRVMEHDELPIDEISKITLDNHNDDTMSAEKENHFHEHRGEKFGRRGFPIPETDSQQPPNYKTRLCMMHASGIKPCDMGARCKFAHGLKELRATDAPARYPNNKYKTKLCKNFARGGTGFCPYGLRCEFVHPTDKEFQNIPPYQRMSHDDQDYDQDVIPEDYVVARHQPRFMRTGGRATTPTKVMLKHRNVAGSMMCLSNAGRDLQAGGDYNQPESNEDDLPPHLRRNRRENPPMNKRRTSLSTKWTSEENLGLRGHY

[5] = biological target: T5, Leucine aminopeptidase (Plasmodium falciparum 3D7, UniProt Q8IL11); experiment: P. falciparum M17LAP inhibitors, primary screen, biochemical, fluorogenic H-Leu-NHMec substrate, 1536-well (AID 1619); assay type: functional
T5 sequence (Q8IL11 whole entry): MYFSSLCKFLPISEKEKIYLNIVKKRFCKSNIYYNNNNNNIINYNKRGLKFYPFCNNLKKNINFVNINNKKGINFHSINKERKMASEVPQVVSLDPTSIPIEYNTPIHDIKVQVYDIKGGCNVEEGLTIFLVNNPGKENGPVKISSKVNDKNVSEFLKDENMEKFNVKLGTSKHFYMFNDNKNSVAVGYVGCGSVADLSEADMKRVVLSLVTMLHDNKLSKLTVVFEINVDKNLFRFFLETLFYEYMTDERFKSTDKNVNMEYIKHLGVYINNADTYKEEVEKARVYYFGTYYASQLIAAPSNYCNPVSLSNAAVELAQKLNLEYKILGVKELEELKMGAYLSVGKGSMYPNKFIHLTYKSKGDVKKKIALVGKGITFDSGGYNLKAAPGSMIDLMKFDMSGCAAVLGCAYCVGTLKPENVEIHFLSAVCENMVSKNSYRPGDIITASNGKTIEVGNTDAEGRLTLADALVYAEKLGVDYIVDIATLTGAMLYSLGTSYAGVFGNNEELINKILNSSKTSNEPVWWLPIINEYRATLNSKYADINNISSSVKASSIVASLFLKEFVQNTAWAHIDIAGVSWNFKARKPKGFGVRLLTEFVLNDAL

[6] = biological target: Intestinal-type alkaline phosphatase (Homo sapiens, UniProt P09923); experiment: activation of human intestinal alkaline phosphatase – biochemical, dose response (AID 488873); assay type: functional
Chain of Intestinal-type alkaline phosphatase (Homo sapiens, UniProt P09923) (P09923 whole entry): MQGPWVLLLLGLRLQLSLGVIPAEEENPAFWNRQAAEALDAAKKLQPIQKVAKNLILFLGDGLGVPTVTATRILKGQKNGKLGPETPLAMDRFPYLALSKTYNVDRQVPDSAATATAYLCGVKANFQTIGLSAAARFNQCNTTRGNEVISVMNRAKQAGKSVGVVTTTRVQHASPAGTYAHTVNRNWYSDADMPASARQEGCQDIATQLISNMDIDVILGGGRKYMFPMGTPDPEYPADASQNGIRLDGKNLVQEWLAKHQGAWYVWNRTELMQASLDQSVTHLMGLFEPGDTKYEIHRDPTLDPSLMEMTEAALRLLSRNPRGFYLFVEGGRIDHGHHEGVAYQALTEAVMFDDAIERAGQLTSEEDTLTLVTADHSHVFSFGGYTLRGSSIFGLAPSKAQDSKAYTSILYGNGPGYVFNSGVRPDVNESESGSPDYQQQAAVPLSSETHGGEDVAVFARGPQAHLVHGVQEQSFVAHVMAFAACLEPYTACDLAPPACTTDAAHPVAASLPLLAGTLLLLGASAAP

[7] = biological target: Phospholipase A2 (Homo sapiens, UniProt P04054); assay type: functional;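 further: confirmatory dose-response counterscreen on phospholipase A2, testing hits that came from an ultra-high-throughput screen for ATG4B inhibitors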
Chain of Phospholipase A2 (P04054 whole entry): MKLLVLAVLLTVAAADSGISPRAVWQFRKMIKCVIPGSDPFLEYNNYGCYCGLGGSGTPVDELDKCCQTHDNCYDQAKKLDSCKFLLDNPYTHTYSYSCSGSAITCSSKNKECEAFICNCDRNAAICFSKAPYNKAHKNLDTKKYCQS

[8] = biological target: T2, Alkaline phosphatase, tissue-nonspecific isozyme; experiment: TNAP enzyme inhibition by screening hits, dose response, selectivity assay for mouse IAP inhibitor project, biochemical, human TNAP, uHTS hits (AID 488906); assay type: functional
[9] = biological target: T1, Intestinal-type alkaline phosphatase; experiment: PubChem AID 488785; assay type: functional
[10] = biological target: 1-phosphatidylinositol 4,5-bisphosphate phosphodiesterase beta-3 (Homo sapiens, UniProt Q01970); experiment: Fluorescence-based biochemical high throughput dose response assay to identify inhibitors of phospholipase C isozymes (PLC-B3).
Chain of 1-phosphatidylinositol 4,5-bisphosphate phosphodiesterase beta-3 (Q01970 whole entry): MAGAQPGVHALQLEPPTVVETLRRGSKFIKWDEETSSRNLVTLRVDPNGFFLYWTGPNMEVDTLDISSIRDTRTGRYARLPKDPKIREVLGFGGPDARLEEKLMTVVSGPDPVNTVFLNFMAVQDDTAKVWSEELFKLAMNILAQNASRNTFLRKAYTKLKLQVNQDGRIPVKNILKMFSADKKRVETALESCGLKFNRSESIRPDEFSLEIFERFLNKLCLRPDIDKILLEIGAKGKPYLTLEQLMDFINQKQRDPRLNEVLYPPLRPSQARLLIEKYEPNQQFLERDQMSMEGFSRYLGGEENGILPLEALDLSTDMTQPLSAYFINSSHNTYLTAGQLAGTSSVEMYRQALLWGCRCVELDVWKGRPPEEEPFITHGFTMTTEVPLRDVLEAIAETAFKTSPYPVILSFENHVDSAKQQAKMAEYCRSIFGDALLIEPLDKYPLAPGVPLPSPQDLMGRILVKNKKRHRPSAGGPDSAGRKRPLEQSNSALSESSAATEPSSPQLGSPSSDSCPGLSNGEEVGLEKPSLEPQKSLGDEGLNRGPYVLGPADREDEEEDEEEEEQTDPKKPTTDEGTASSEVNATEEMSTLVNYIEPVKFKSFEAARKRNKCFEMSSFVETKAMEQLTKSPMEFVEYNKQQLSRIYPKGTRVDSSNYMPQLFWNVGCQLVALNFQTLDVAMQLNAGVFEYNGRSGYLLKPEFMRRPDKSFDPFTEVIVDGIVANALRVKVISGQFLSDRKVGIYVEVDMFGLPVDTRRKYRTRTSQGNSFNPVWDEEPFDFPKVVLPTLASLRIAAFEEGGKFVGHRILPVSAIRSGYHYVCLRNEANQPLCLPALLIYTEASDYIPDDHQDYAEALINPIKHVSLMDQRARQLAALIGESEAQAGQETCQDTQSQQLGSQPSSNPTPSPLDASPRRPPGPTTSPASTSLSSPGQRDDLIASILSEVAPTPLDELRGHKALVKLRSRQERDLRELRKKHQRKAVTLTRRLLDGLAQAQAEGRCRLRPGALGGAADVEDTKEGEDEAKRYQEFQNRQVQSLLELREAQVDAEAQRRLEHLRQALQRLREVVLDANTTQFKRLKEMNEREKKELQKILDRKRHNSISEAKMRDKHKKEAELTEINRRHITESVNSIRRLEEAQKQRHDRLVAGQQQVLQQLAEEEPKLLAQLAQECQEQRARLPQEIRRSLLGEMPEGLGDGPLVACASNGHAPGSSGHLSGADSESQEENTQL

[11] = biological target: 1-phosphatidylinositol 4,5-bisphosphate phosphodiesterase gamma-1 (Homo sapiens, UniProt P19174); experiment: Counterscreen for inhibitors of phospholipase C isozymes (PLC-B3): Fluorescence-based biochemical high throughput dose response assay to identify inhibitors of phospholipase C isozymes (PLC-gamma1).
[12] = biological target: T6, Cysteine protease ATG4B (Homo sapiens, UniProt Q9Y4P1); assay type: functional;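 further: Fluorescence-based dose-response confirmation assay measuring inhibition of ATG4B activity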
T6 sequence (Q9Y4P1 whole entry): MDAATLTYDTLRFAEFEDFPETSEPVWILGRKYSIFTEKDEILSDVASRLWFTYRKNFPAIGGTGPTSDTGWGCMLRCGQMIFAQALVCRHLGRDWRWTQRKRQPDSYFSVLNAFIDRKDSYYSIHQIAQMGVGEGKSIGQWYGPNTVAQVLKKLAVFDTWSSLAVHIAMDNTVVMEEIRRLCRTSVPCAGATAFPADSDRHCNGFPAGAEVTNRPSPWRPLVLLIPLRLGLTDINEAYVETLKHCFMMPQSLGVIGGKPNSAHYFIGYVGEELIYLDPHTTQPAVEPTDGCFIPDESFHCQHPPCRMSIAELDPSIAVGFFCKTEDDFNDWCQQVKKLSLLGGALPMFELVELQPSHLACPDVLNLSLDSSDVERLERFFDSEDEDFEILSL

[13] = biological target: Prothrombin (Bos taurus, UniProt P00735); experiment: thrombin protease inhibitors – biochemical, fluorescence polarization, uHTS hits, dose response (AID 602369); assay type: functional
[14] = biological target: 26S proteasome non-ATPase regulatory subunit 14 (Homo sapiens, UniProt O00487); experiment: inhibition of proteasome subunit RPN11 – biochemical, fluorescence polarization, uHTS hits, confirmation (AID 602368); assay type: functional
Chain of 26S proteasome non-ATPase regulatory subunit 14 (O00487 whole entry): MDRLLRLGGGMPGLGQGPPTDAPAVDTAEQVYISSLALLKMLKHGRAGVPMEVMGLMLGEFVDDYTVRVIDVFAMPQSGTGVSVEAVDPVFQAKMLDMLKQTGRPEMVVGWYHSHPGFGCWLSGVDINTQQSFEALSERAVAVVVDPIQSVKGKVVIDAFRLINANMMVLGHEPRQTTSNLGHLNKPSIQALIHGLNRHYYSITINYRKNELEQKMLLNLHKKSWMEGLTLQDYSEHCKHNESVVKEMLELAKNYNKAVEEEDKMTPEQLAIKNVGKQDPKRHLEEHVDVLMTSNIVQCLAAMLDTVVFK

[15] = biological target: Large T antigen (Simian virus 40, UniProt P03070); assay type: functional, Betapolyomavirus macacae;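 further: Confirmatory-stage PubChem screen for compounds that inhibit SV40 T antigen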
[16] = biological target: T7, ORF 73 (Human herpesvirus 8, UniProt O40947); experiment: KSHV LANA DNA-binding disruption – biochemical, fluorescence polarization, cherry-picked samples, dose response (AID 504725); parameters: species or system Human gammaherpesvirus 8;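 further: fluorescence polarization of a labeled DNA duplex reporting LANA DNA binding; potency is for inhibitors that block LANA binding to the DNA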
T7 sequence (O40947 whole entry): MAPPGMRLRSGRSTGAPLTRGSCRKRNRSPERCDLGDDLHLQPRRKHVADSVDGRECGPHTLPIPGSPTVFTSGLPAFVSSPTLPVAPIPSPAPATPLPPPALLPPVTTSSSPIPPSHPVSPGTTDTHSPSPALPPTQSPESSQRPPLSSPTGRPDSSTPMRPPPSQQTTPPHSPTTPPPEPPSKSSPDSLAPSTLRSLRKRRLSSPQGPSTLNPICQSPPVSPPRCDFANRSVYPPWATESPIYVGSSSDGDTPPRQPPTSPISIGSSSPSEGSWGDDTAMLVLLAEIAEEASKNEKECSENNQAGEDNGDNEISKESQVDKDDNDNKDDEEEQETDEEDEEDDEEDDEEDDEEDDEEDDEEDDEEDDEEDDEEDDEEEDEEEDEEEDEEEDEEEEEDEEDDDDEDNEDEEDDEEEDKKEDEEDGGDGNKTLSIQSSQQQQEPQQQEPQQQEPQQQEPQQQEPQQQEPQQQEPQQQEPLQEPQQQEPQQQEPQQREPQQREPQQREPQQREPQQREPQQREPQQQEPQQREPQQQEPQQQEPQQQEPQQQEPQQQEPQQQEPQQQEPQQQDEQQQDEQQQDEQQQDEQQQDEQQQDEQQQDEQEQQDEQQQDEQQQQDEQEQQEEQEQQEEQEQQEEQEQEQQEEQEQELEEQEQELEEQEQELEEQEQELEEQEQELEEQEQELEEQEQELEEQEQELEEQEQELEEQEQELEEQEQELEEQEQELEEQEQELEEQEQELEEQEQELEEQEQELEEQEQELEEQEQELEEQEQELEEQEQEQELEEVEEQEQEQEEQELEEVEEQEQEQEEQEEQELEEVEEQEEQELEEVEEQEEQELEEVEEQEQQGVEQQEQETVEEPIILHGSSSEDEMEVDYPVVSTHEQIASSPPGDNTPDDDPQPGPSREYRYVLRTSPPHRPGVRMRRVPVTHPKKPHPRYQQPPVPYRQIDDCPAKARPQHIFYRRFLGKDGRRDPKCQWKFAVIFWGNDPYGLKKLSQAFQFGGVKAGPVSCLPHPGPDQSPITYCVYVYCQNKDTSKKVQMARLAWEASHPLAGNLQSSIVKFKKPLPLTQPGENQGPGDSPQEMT

[17] = biological target: 72 kDa type IV collagenase (Homo sapiens, UniProt P08253); experiment: Dose Response validation of uHTS RPN11 inhibitor hits using a MMP-2 Fluorescence assay.; assay type: functional
[18] = biological target: T8, Dual specificity protein phosphatase 6 (Rattus norvegicus, UniProt Q64346); experiment: inhibition of rat DUSP6 enzyme activity – biochemical, in vitro, primary screen (AID 425)
T8 sequence (Q64346 whole entry): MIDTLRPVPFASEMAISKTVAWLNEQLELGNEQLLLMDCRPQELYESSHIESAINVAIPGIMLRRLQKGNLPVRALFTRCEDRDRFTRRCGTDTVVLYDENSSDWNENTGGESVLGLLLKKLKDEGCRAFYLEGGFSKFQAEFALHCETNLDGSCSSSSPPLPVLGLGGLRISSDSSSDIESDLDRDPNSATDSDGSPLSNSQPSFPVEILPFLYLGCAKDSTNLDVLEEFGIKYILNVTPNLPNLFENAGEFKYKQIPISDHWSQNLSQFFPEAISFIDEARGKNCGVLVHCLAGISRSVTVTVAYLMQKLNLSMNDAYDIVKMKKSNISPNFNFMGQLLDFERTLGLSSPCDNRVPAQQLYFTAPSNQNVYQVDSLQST

[19] = biological target: Induced myeloid leukemia cell differentiation protein Mcl-1 (Homo sapiens, UniProt Q07820); assay type: functional
Chain of Induced myeloid leukemia cell differentiation protein Mcl-1 (Q07820 whole entry): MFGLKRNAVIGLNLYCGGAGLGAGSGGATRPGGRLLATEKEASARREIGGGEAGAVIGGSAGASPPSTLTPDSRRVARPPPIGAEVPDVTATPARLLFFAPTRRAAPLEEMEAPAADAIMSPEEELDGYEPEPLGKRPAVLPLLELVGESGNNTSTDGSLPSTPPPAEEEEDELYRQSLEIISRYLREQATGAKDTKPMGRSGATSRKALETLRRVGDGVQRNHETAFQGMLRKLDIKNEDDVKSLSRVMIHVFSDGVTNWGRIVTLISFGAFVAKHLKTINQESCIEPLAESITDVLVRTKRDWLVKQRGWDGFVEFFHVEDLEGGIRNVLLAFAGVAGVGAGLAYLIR

[20] = biological target: DNA (cytosine-5)-methyltransferase 1 (Homo sapiens, UniProt P26358); experiment: inhibition of DNA methylation by DNMT1 – biochemical, fluorescent molecular beacon, confirmation (AID 602386); assay type: functional
Chain of DNA (cytosine-5)-methyltransferase 1 (P26358 whole entry): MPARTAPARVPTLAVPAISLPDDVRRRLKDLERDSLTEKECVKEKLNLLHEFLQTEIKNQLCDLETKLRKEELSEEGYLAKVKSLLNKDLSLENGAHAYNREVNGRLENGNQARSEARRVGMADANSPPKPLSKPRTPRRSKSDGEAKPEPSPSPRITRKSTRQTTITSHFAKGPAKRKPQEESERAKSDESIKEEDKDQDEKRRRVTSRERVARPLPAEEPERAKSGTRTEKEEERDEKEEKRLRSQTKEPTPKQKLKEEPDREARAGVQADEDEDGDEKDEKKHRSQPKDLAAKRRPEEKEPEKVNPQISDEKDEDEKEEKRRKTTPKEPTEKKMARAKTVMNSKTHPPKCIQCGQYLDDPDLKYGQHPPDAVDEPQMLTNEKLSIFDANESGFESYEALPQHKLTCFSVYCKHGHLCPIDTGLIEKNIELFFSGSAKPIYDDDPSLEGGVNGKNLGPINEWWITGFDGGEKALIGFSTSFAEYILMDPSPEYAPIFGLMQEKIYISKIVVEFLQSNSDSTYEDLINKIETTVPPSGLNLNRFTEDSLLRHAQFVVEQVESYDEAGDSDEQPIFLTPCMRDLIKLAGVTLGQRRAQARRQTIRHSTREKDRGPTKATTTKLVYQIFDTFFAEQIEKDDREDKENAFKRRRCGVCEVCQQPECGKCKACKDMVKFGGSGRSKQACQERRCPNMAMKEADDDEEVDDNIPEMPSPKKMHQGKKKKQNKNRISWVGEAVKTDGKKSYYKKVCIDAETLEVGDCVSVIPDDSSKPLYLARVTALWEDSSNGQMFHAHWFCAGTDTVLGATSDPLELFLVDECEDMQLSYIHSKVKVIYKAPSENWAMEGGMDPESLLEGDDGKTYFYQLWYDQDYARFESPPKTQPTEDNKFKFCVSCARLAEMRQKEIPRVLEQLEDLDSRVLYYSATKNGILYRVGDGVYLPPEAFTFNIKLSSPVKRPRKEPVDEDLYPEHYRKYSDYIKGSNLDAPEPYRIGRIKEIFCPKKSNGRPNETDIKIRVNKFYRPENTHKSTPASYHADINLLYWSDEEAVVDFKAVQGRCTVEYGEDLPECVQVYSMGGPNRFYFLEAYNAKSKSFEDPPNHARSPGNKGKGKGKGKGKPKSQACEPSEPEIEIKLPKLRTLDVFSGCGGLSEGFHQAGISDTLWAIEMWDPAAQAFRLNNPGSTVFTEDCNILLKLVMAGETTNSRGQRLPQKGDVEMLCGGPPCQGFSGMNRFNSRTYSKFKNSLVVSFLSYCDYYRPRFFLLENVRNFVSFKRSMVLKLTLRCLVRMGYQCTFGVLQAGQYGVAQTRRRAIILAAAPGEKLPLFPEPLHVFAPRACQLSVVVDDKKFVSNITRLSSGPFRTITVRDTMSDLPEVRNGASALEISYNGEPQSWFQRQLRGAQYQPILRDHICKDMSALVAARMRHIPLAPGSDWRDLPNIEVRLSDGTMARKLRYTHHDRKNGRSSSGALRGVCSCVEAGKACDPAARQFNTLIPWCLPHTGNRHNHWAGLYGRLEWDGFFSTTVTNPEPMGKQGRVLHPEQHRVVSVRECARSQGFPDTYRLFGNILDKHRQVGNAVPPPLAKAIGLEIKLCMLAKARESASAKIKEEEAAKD

[21] = biological target: T9, Dual specificity protein phosphatase 3 (Homo sapiens, UniProt P51452); experiment: VHR1 phosphatase inhibitors, primary screen, biochemical, absorbance, uHTS (AID 1654)
T9 sequence (P51452 whole entry): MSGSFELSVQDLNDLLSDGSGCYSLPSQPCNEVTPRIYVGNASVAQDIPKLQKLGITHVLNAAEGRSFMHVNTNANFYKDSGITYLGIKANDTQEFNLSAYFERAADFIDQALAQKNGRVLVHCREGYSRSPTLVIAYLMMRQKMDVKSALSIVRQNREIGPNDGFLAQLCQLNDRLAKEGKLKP

[22] = biological target: T9, Dual specificity protein phosphatase 3; experiment: VHR1 phosphatase inhibitors, biochemical (AID 1878)

T1 sequence (P24822 whole entry): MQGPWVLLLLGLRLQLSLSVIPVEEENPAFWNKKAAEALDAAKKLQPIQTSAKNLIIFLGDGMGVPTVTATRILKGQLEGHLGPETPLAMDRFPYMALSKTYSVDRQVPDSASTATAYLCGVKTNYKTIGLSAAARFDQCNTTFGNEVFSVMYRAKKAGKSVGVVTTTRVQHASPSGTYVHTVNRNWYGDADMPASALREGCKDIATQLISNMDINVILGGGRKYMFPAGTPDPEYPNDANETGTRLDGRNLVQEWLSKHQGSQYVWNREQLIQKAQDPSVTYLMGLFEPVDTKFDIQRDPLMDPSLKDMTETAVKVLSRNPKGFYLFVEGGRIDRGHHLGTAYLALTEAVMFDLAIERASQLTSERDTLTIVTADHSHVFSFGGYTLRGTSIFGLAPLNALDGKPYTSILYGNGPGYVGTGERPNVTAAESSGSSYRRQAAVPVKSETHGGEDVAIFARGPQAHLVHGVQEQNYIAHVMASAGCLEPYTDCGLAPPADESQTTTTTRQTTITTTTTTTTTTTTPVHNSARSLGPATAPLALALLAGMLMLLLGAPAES

COc1ccc(S(=O)(=O)Nc2ccc(O)c(Sc3nnc[nH]3)c2)cc1
active: EC50 [1] 63.4 µM | EC50 [2] 62.8 µM | EC50 [3] 10.4 µM | EC50 [4] 8.48 µM | IC50 [5] 25 µM | EC50 [6] 79.6 µM

O=C(CN1C(=O)/C(=C/c2ccco2)SC1=S)Nc1ccc(C(=O)O)c(O)c1
inactive: IC50 [8] > 100 µM | IC50 [10] > 122 µM | IC50 [11] > 122 µM | EC50 [6] > 100 µM
active: IC50 [7] 16.8 µM | IC50 [9] 9.42 µM | IC50 [12] 6.89 µM | IC50 [13] 45.8 µM | IC50 [14] 19.4 µM | IC50 [15] 76.9 µM | AC50 [16] 76.1 µM | IC50 [17] 2.32 µM

Cc1ccc(NC(=O)CN2C(=O)S/C(=C\c3cccn3-c3cccc(C(=O)O)c3)C2=O)c(C)c1
active: IC50 [18] 7.9 µM | IC50 [19] > 54 µM | IC50 [20] 9.17 µM | IC50 [21] 3.25 µM | IC50 [22] 1.89 µM
> 300 µM (not active): EC50 [3] | EC50 [4]

COc1ccc(/N=C2\SC(C(N)=O)CC(=O)N2CCc2ccc(OC)c(OC)c2)cc1 (stereo not drawn)
active: EC50 [1] 13.3 µM | EC50 [2] 48.9 µM | EC50 [6] 59.6 µM
